Laboratory results taken from patent US9738604B2, “Ethynylbenzene derivatives” (Duke University, priority 2010, dated 2017).
In brackets after ≈: the same amount, converted by molar mass.

Legend:
Type in all cases: cell-based
[1] = tested on: E. coli W3110; assay: microbe, parasite or virus in culture; settings: for MIC: Escherichia coli, W3110, 22 h, read-out: MIC E. coli W3110
[2] = tested on: E. coli W3110RL; assay: microbe, parasite or virus in culture; settings: for MIC E. coli W3110RL: E. coli with lpxC of R. leguminosarum, 22 hours at 37° C., MTT; for MIC: Escherichia coli, W3110RL, 22 h, read-out: MIC E. coli W3110RL
[3] = tested on: P. aeruginosa (PAO1); assay: MIC, P. aeruginosa; settings: for MIC P. aeruginosa (PAO1): 22 hours at 37° C., MTT; for MIC: Pseudomonas aeruginosa, PAO1, 22 h, read-out: MIC P. aeruginosa (PAO1)
[4] = tested on: E. coli W3110PA; assay: microbe, parasite or virus in culture; settings: for MIC E. coli W3110PA: E. coli with lpxC of P. aeruginosa, 22 hours at 37° C., MTT; for MIC: Escherichia coli, W3110PA, 22 h, read-out: MIC E. coli W3110PA

SMILES	MIC E. coli W3110 [1]	MIC E. coli W3110RL [2]	MIC P. aeruginosa (PAO1) [3]	MIC E. coli W3110PA [4]	MIC [1]	MIC [2]	MIC [3]	MIC [4]
NC[C@H](NC(=O)c1ccc(C#CC#Cc2ccc(N)cc2)cc1)C(=O)NO [CPD-021, (2S)-3-amino-2-({4′-[4′-(4′-aminophenyl)buta-1′,3′-diyn-1-yl]phenyl}formamido)-N-hydroxypropanamide]	B (key: A: <1 μg/mL; B: 1-10 μg/mL; C: 11-50 μg/mL; D: 51-100 μg/mL; E: >100 μg/mL)	E (>100 μg/mL)	B (1-10 μg/mL)	C (11-50 μg/mL)				
Nc1ccc(C#CC#Cc2ccc(C(=O)N[C@@H](Cc3c[nH]cn3)C(=O)NO)cc2)cc1 [CPD-014, (2S)-2-({4′-[4′-(4′-aminophenyl)buta-1′,3′-diyn-1′-yl]phenyl}formamido)-N-hydroxy-3-(1′H-imidazol-4′-yl)propanamide]	A (key: A: <1 μg/mL; B: 1-10 μg/mL; C: 11-50 μg/mL; D: 51-100 μg/mL; E: >100 μg/mL)	E (>100 μg/mL)	B (1-10 μg/mL)	B (1-10 μg/mL)				
C[C@@H](O)[C@H](NC(=O)c1ccc(C#CC#Cc2ccc(N)cc2)cc1)C(=O)NN [CPD-045, 4-((4-aminophenyl)buta-1,3-diynyl)-N-((2S,3R)-1-hydrazinyl-3-hydroxy-1-oxobutan-2-yl)benzamide]					1 to 10 µg/mL (≈ 2.66 to 26.6 µM)	51 to 100 µg/mL (≈ 135 to 266 µM)	51 to 100 µg/mL (≈ 135 to 266 µM)	51 to 100 µg/mL (≈ 135 to 266 µM)
Nc1ccc(C#CC#Cc2ccc(C(=O)N[C@H](C(=O)NO)[C@H](O)c3ccc(O)cc3)cc2)cc1 [CPD-049, 4-((4-aminophenyl)buta-1,3-diynyl)-N-((1R,2S)-1-hydroxy-3-(hydroxyamino)-1-(4-hydroxyphenyl)-3-oxopropan-2-yl)benzamide]					1 to 10 µg/mL (≈ 2.2 to 22 µM)	51 to 100 µg/mL (≈ 112 to 220 µM)	11 to 50 µg/mL (≈ 24.2 to 110 µM)	51 to 100 µg/mL (≈ 112 to 220 µM)
C[C@@](O)(CF)[C@H](NC(=O)c1ccc(C#CC#Cc2ccc(N)cc2)cc1)C(=O)NO [CPD-061, 4-((4-aminophenyl)buta-1,3-diynyl)-N-((2S,3S)-4-fluoro-3-hydroxy-1-(hydroxyamino)-3-methyl-1-oxobutan-2-yl)benzamide]					< 1 µg/mL	51 to 100 µg/mL (≈ 125 to 244 µM)	1 to 10 µg/mL (≈ 2.44 to 24.4 µM)	1 to 10 µg/mL (≈ 2.44 to 24.4 µM)
C[C@@](O)(c1ccc(O)cc1)C(NC(=O)c1ccc(C#CC#Cc2ccc(N)cc2)cc1)C(=O)NO (stereo partly drawn) [CPD-052, 4-((4-aminophenyl)buta-1,3-diynyl)-N-((3R)-3-hydroxy-1-(hydroxyamino)-3-(4-hydroxyphenyl)-1-oxobutan-2-yl)benzamide]					< 1 µg/mL	51 to 100 µg/mL (≈ 109 to 213 µM)	1 to 10 µg/mL (≈ 2.13 to 21.3 µM)	1 to 10 µg/mL (≈ 2.13 to 21.3 µM)
C[C@@H](O)[C@H](NC(=O)c1ccc(C#CCOc2ccc(N)cc2)cc1)C(=O)NO [CPD-059, 4-(3-(4-aminophenoxy)prop-1-ynyl)-N-((2S,3R)-3-hydroxy-1-(hydroxyamino)-1-oxobutan-2-yl)benzamide]					1 to 10 µg/mL (≈ 2.61 to 26.1 µM)	51 to 100 µg/mL (≈ 133 to 261 µM)	11 to 50 µg/mL (≈ 28.7 to 130 µM)	11 to 50 µg/mL (≈ 28.7 to 130 µM)
C[C@@H](O)[C@H](NC(=O)c1ccc(C#CC#Cc2cccnc2)cc1)C(=O)NO [CPD-038, (2S,3R)-2-{4′-[(pyridin-3″-yl]buta-1′,3′-diynyl]benzamido}-1,3-dihydroxybutanamide]	A (key: A: <1 μg/mL; B: 1-10 μg/mL; C: 11-50 μg/mL; D: 51-100 μg/mL; E: >100 μg/mL)	D (51-100 μg/mL)	A (<1 μg/mL)	B (1-10 μg/mL)				
CC(C)[C@@]1(NC(=O)c2ccc(C#CC#Cc3ccc(N)cc3)cc2)CCN(O)C1=O [CPD-048, (S)-4-((4-aminophenyl)buta-1,3-diynyl)-N-(1-hydroxy-3-isopropyl-2-oxopyrrolidin-3-yl)benzamide]					1 to 10 µg/mL (≈ 2.49 to 24.9 µM)	51 to 100 µg/mL (≈ 127 to 249 µM)	51 to 100 µg/mL (≈ 127 to 249 µM)	51 to 100 µg/mL (≈ 127 to 249 µM)
N=C(N)NCCC[C@H](NC(=O)c1ccc(C#CC#Cc2ccc(N)cc2)cc1)C(=O)NO [CPD-034, (2S)-2-({4′-[4′-(4′-aminophenyl)buta-1′,3′-diyn-1-yl]phenyl}formamido)-5′-carbamimidamido-N-hydroxypentanamide]	C (key: A: <1 μg/mL; B: 1-10 μg/mL; C: 11-50 μg/mL; D: 51-100 μg/mL; E: >100 μg/mL)	D (51-100 μg/mL)	C (11-50 μg/mL)	D (51-100 μg/mL)				
